Where a name gives a salt, the structure may show the parent alone.

Common to all, as to assay type: cell-based
One test has as its system MRSA strain ATCC 700699. Description: Minimum Inhibitory Concentration (MIC) assay, Methicillin Resistant S. Aureus. Conditions: Staphylococcus aureus; broth microdilution; read-out: MIC against Methicillin Resistant S. Aureus. The source says: It has been unexpectedly discovered that substitution of compounds of Formula I and Formula II with a methoxy substituent at the R8 position increases the anti-microbial activity of the compound against Methicillin resistant Staphylococcus Aureus bacteria while at the same time decreasing the cellular toxicity of the compound. The simultaneous increase in compound activity and decrease in compound toxicity provides a greater therapeutic range for compounds of Formula I and Formula II in which R8 is methoxy; i.e. the range of doses of such compounds that will produce beneficial effects without harmful side effects is increased. […] Therapeutic range is determined using a standard assay of cytotoxicity such as the Alamar blue assay provided in Example 10.
(§1) The antimicrobial activity of the compounds of the invention may be evaluated by a number of methods, including the following visual minimum inhibitory concentration (MIC) assay. This assay determines the minimum concentration of compound required to inhibit growth of a bacterial strain.
(§2) Minimum Inhibitory Concentration (MIC) Assay
(§3) Whole-cell antibacterial activity is determined by broth microdilution using conditions recommended by the NCCLS (see National Committee for Clinical Laboratory Standards. 2001. Performance standards for antimicrobial susceptibility testing: 11th informational supplement. Vol. 21, no. 1, M100-S11. National Committee for Clinical Laboratory Standards, Wayne, Pa.). Test compounds are dissolved in DMSO and diluted 1:50 in Mueller-Hinton II broth (Becton-Dickinson) to produce a 256 μg/ml stock solution. In a 96-well microtiter plate, the compound solution is serially two-fold diluted in Mueller-Hinton II broth. After the compounds are diluted, a 50 μl aliquot of the test organism (˜1×10^6 cfu/mL) is added to each well of the microtiter plate. The final test concentrations ranges from 0.125-128 μg/mL. Inoculated plates are incubated in ambient air at 37° C. for 18 to 24 hours. The organisms selected for testing included laboratory strains S. aureus ATCC 29213 and E. coli ATCC 25922 (strains purchased from American Type Culture Collection, Manassas, Va.), S. aureus FQR700699, and Paeruginosa 27853. The minimum inhibitory concentration (MIC) is determined as the lowest concentration of compound that inhibited visible growth of the test organism.
(In general: In broth dilution the organism is exposed to a series of concentrations in liquid medium.)

In the next test the test system is S. aureus ATCC 29213. Description: Minimum Inhibitory Concentration (MIC) assay, S. aureus. Conditions: Staphylococcus aureus, ATCC29213; broth microdilution; read-out: MIC against S. Aureus. How it is done:
as §1, §2, §3

The next test concerns E. coli ATCC 25922. Kind of test: Minimum Inhibitory Concentration (MIC) assay, E. coli. The settings on record: Escherichia coli, ATCC25922; broth microdilution; read-out: MIC against E. coli. The protocol:
as §1, §2, §3

The MIC is the least concentration at which growth counts as inhibited. As to `COc1c(N(C)C)c(F)cc2c(=O)c3c(=O)[nH]sc3n(C3CC3)c12` [Compound 42, 9-cyclopropyl-7-(dimethyl-amino)-6-fluoro-8-methoxyiso-thiazolo[5,4-b]quinoline-3,4(2H,9H)-dione], the MIC in the test on MRSA strain ATCC 700699, in the test on S. aureus ATCC 29213 and with E. coli ATCC 25922 was no more than 1 µg/mL in each case.

As for `COc1c(N2CC[C@@H](C(C)(C)N)C2)ccc2c(=O)c3c(=O)[nH]sc3n(C3CC3)c12` [Compound 54, (R)-7-(3-(2-aminopropan-2-yl)pyrrolidin-1-yl)-9-cyclopropyl-8-methoxyiso-thiazolo[5,4-b]quinoline-3,4(2H,9H)-dione, hydrochloride], the MIC in the test with MRSA strain ATCC 700699, in the test on S. aureus ATCC 29213 and in the test on E. coli ATCC 25922 was no more than 1 µg/mL each time.

As for `COc1c(N2CC[C@@H](C3(N)CC3)C2)c(F)cc2c(=O)c3c(=O)[nH]sc3n(C3CC3)c12` [Compound 55, (R)-7-(3-(1-amino-cyclopropyl)pyrrolidin-1-yl)-9-cyclopropyl-6-fluoro-8-methoxyiso-thiazolo[5,4-b]quinoline-3,4(2H,9H)-dione, hydrochloride], the MIC in the test on MRSA strain ATCC 700699, with S. aureus ATCC 29213 and in the test with E. coli ATCC 25922 was no more than 1 µg/mL each time.

Regarding `COc1c(N2CC[C@@H](C3(N)CC3)C2)ccc2c(=O)c3c(=O)[nH]sc3n(C3CC3)c12` [Compound 56, (R)-7-(3-(1-aminocyclo-propyl)pyrrolidin-1-yl)-9-cyclopropyl-8-methoxy-isothia-zolo[5,4-b]quinoline-3,4(2H,9H)-dione, hydrochloride], the MIC with MRSA strain ATCC 700699, with S. aureus ATCC 29213 and in the test with E. coli ATCC 25922 was no more than 1 µg/mL in each case.

As to `COc1c(N2CCC(C(C)(C)N)C2)c(F)cc2c(=O)c3c(=O)[nH]sc3n(C3CC3)c12` (stereo not drawn) [Compound 57, 7-(3-(2-aminopropan-2-yl)pyrrolidin-1-yl)-9-cyclopropyl-6-fluoro-8-methoxyiso-thiazolo[5,4-b]quinoline-3,4(2H,9H)-dione], the MIC in the test on MRSA strain ATCC 700699, in the test with S. aureus ATCC 29213 and in the test on E. coli ATCC 25922 was no more than 1 µg/mL throughout.

As for `[2H]C1([2H])CC(C(C)(C)N)C([2H])([2H])N1c1c(F)cc2c(=O)c3c(=O)[nH]sc3n(C3CC3)c2c1OC` (stereo not drawn) [Compound 71, 7-(3-(2-amino-propan-2-yl)-2,2,5,5-tetradeuterated-pyrrolidin-1-yl)-9-cyclopropyl-6-fluoro-8-methoxyiso-thiazolo[5,4-b]quinoline-3,4(2H,9H)-dione], the MIC in the test with MRSA strain ATCC 700699, in the test with S. aureus ATCC 29213 and in the test on E. coli ATCC 25922 was no more than 1 µg/mL throughout.

In the case of `COc1c(N2CC[C@@H](C(C)N)C2)c(F)cc2c(=O)c3c(=O)[nH]sc3n(C3CC3)c12` (stereo partly drawn) [Compound 73, (R)-7-(3-(1-aminoethyl)pyrrolidin-1-yl)-9-cyclopropyl-6-fluoro-8-methoxyiso-thiazolo[5,4-b]quinoline-3,4(2H,9H)-dione], the MIC in the test on MRSA strain ATCC 700699, in the test with S. aureus ATCC 29213 and with E. coli ATCC 25922 was no more than 1 µg/mL each time.

For the compound `CNC(C)[C@@H]1CCN(c2c(F)cc3c(=O)c4c(=O)[nH]sc4n(C4CC4)c3c2OC)C1` (stereo partly drawn) [Compound 74, (R)-9-cyclopropyl-6-fluoro-8-methoxy-7-(3-(1-(methyl-amino)ethyl)-pyrrolidin-1-yl)isothia-zolo[5,4-b]quinoline-3,4(2H,9H)-dione], the MIC in the test on MRSA strain ATCC 700699, with S. aureus ATCC 29213 and in the test on E. coli ATCC 25922 was no more than 1 µg/mL in each case.

Consider `CC(C)(N)C1CCN(c2c(F)cc3c(=O)c4c(=O)[nH]sc4n(C4CC4)c3c2F)C1` (stereo not drawn) [Compound 75, 7-(3-(2-amino-propan-2-yl)pyrrolidin-1-yl)-9-cyclo-propyl-6,8-difluoroiso-thiazolo[5,4-b]quinoline-3,4(2H,9H)-dione], for which the MIC in the test on MRSA strain ATCC 700699, in the test on S. aureus ATCC 29213 and with E. coli ATCC 25922 was no more than 1 µg/mL each time.

On to `CCNC(C)[C@@H]1CCN(c2c(F)cc3c(=O)c4c(=O)[nH]sc4n(C4CC4)c3c2OC)C1` (stereo partly drawn) [Compound 77, (R)-9-cyclo-propyl-7-(3-(1-(ethyl-amino)ethyl)pyrrolidin-1-yl)-6-fluoro-8-methoxyiso-thiazolo[5,4-b]quinoline-3,4(2H,9H)-dione], for which the MIC in the test with MRSA strain ATCC 700699, in the test with S. aureus ATCC 29213 and in the test on E. coli ATCC 25922 was no more than 1 µg/mL in each case.

As for `CNC[C@@H]1CCN(c2c(F)cc3c(=O)c4c(=O)[nH]sc4n(C4CC4)c3c2OC)C1` [Compound 87, (S)-9-cyclo-propyl-6-fluoro-8-methoxy-7-(3-((methylamino)-methyl)pyrrolidin-1-yl)isothia-zolo[5,4-b]quinoline-3,4(2H,9H)-dione], the MIC in the test on MRSA strain ATCC 700699, in the test with S. aureus ATCC 29213 and with E. coli ATCC 25922 was no more than 1 µg/mL each time.

Turning to `COc1c(N2CC[C@@H](CNC3CC3)C2)c(F)cc2c(=O)c3c(=O)[nH]sc3n(C3CC3)c12` [Compound 88, (S)-9-cyclo-propyl-7-(3-((cyclopropyl-amino)-methyl)-pyrrolidin-1-yl)-6-fluoro-8-methoxyiso-thiazolo[5,4-b]quinoline-3,4(2H,9H)-dione], the MIC with MRSA strain ATCC 700699, in the test on S. aureus ATCC 29213 and in the test on E. coli ATCC 25922 was no more than 1 µg/mL throughout.

With `CCNC(C)(C)[C@@H]1CCN(c2c(F)cc3c(=O)c4c(=O)[nH]sc4n(C4CC4)c3c2OC)C1` [Compound 89, (R)-9-cyclo-propyl-7-(3-(2-(ethyl-amino)propan-2-yl)pyrrolidin-1-yl)-6-fluoro-8-methoxyiso-thiazolo[5,4-b]quinoline-3,4(2H,9H)-dione], the MIC in the test with MRSA strain ATCC 700699, in the test with S. aureus ATCC 29213 and with E. coli ATCC 25922 was no more than 1 µg/mL each time.

Take `COc1c(N2CC[C@@H](C(C)NC3CC3)C2)c(F)cc2c(=O)c3c(=O)[nH]sc3n(C3CC3)c12` (stereo partly drawn) [Compound 93, (R)-9-cyclo-propyl-7-(3-(1-(cyclo-propylamino)ethyl)-pyrrolidin-1-yl)-6-fluoro-8-methoxyiso-thiazolo[5,4-b]quinoline-3,4(2H,9H)-dione]: the MIC in the test on MRSA strain ATCC 700699, in the test on S. aureus ATCC 29213 and with E. coli ATCC 25922 was no more than 1 µg/mL each time.

As to `COc1c(N2CC[C@H](C(C)NC3CC3)C2)c(F)cc2c(=O)c3c(=O)[nH]sc3n(C3CC3)c12` (stereo partly drawn) [Compound 94, (S)-9-cyclo-propyl-7-(3-(1-(cyclo-propylamino)ethyl)-pyrrolidin-1-yl)-6-fluoro-8-methoxyiso-thiazolo[5,4-b]quinoline-3,4(2H,9H)-dione], the MIC in the test on MRSA strain ATCC 700699, in the test with S. aureus ATCC 29213 and with E. coli ATCC 25922 was no more than 1 µg/mL in each case.

On to `COc1c(N2CC(C)C(CN)C2)c(F)cc2c(=O)c3c(=O)[nH]sc3n(C3CC3)c12` (stereo not drawn) [Compound 95, 7-(3-(amino-methyl)-4-methyl-pyrrolidin-1-yl)-9-cyclopropyl-6-fluoro-8-methoxyiso-thiazolo[5,4-b]quinoline-3,4(2H,9H)-dione], for which the MIC in the test with MRSA strain ATCC 700699, in the test with S. aureus ATCC 29213 and in the test on E. coli ATCC 25922 was no more than 1 µg/mL each time.

As for `COc1c(N2CC(C)C(C#N)C2)c(F)cc2c(=O)c3c(=O)[nH]sc3n(C3CC3)c12` (stereo not drawn) [Compound 100, 1-(9-cyclo-propyl-6-fluoro-8-methoxy-3,4-dioxo-2,3,4,9-tetrahydroisothia-zolo[5,4-b]quinolin-7-yl)-4-methyl-pyrrolidine-3-carbonitrile], the MIC in the test on MRSA strain ATCC 700699, with S. aureus ATCC 29213 and with E. coli ATCC 25922 was no more than 1 µg/mL in each case.

With `CN[C@@H](C)[C@@H]1CCN(c2c(F)cc3c(=O)c4c(=O)[nH]sc4n(C4CC4)c3c2OC)C1` [Compound 108, 9-cyclopropyl-6-fluoro-8-methoxy-7-((R)-3-((S)-1-(methylamino)-ethyl)pyrrolidin-1-yl)isothia-zolo[5,4-b]quinoline-3,4(2H,9H)-dione], the MIC in the test with MRSA strain ATCC 700699 and in the test with S. aureus ATCC 29213 was no more than 1 µg/mL in each case.

For the compound `COc1c(N2CC[C@@H]([C@H](C)N)C2)ccc2c(=O)c3c(=O)[nH]sc3n(C3CC3)c12` [Compound 111, 7-((R)-3-((S)-1-aminoethyl)-pyrrolidin-1-yl)-9-cyclo-propyl-8-methoxyiso-thiazolo[5,4-b]quinoline-3,4(2H,9H)-dione], the MIC in the test with MRSA strain ATCC 700699 and in the test on S. aureus ATCC 29213 was no more than 1 µg/mL throughout.

In the case of `COc1c(N2CC[C@@H](C(C)NC(C)C)C2)c(F)cc2c(=O)c3c(=O)[nH]sc3n(C3CC3)c12` (stereo partly drawn) [Compound 112, (R)-9-cyclo-propyl-6-fluoro-7-(3-(1-(isopropyl-amino)ethyl)pyrrolidin-1-yl)-8-methoxyiso-thiazolo[5,4-b]quinoline-3,4(2H,9H)-dione], the MIC in the test with MRSA strain ATCC 700699 and in the test on S. aureus ATCC 29213 was no more than 1 µg/mL in each case.

These data come from patent US8044204B2, “8-methoxy-9H-isothiazolo[5,4-b]quinoline-3,4-diones and related compounds as anti-infective agents” (Achillion Pharmaceuticals, Inc., priority 2005, dated 2011).
